Patent US20230041563A1, “N-(1,3,4-OXADIAZOL-2-YL)ARYLCARBOXAMIDES OR SALTS THEREOF, PREPARATION METHODS, HERBICIDAL COMPOSITIONS AND USES THEREOF” (priority 2018, published 2023)

Key:
Assay in all cases: Weeding effect in post-emergence stage (greenhouse pot spray)
Assay type in all cases: in vivo
[1] = test system: Digitaria sanguinalis
Procedure, shortened: (§1)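 Greenhouse post-emergence test: compounds were sprayed at 500, 250, 125, 60 and 15 g a.i./ha onto plants 2 weeks after sowing, and fresh weight control rates were averaged from three replicates 3 weeks later.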

[2] = test system: Abutilon theophrasti
Procedure, shortened: as §1

[3] = test system: Echinochloa crusgalli
Procedure, shortened: as §1

[4] = test system: Stellaria media
Source text: (§2) The activity level criteria for plant damage (i.e., growth control rate) are as follows:
(§3) The above growth control rates are fresh weight control rates.
(§4) Experiment on weeding effect in post-emergence stage: monocotyledonous and dicotyledonous weed seeds (Descurainia sophia, Capsella bursa-pastoris, Abutilon theophrasti, Galium aparine, Stellaria media, Lithospermum arvense, rorippa indica, Alopecurus aequalis, Beckmannia syzigachne, Sclerochloa dura, Phleum paniculatum, Bromus japonicus, Aegilops tauschii, Phalaris arundinacea, Amaranthus retroflexus, Chenopodiaceae, Commelina communis, Sonchus arvensis, convolvulus arvensis, Cirsium setosum, Solanum nigrum, Acalypha australis, Digitaria sanguinalis, Echinochloa crusgalli, Setaria viridis, Setaria glauca, Leptochloa chinensis, Monochoria vaginalis, Sagittaria trifolia, Scirpus juncoides, Cyperus rotundus, Cyperus iria, Cyperus difformis, Fimbristylis, Portulaca oleracea, Xanthium sibiricum, Pharbitis nil) and major crop seeds (wheat, corn, rice, soybean, cotton, oilseed rape, millet, sorghum, potato, sesame, ricinus) were placed in plastic pots filled with soil, then covered with 0.5-2 cm of soil, allowed to grow in a good greenhouse environment. After 2 weeks of sowing, the test plants were treated in the 2 to 3 leaf stage. The tested compounds of the present invention were respectively dissolved in acetone, then added with Tween 80 and 1.5 liter/ha of emulsifiable concentrate of methyl oleate as synergist, diluted with a certain amount of water to obtain a solution with a certain concentration, and sprayed with a spray tower onto the plants. After the application, the plants were cultured for 3 weeks in the greenhouse, and then the experimental results of the weeding were counted. The doses of the used compounds were 500, 250, 125, 60, 15 g a.i./ha, and the averages were obtained by repeating for three times.

[5] = test system: Amaranthus retroflexus
Source text: as §2, §3, §4

SMILES | Digitaria sanguinalis (activity level) ([1]; Table 2, dose 500 g a.i./ha) | Abutilion theophrasti (activity level) ([2]; Table 2, dose 500 g a.i./ha) | Echinochloa crusgah (activity level) ([3]; Table 2, dose 500 g a.i./ha) | Amaranthus retroflexus (activity level) ([5]; Table 2, dose 500 g a.i./ha) | Digitaria sanguinalis (activity level) ([1]; Table 2, dose 250 g a.i./ha) | Abutilion theophrasti (activity level) ([2]; Table 2, dose 250 g a.i./ha) | Echinochloa crusgah (activity level) ([3]; Table 2, dose 250 g a.i./ha) | Amaranthus retroflexus (activity level) ([5]; Table 2, dose 250 g a.i./ha) | other results
COC(C)C[S+]([O-])c1c(C(F)(F)F)ccc(C(=O)Nc2nnc(C)o2)c1F (stereo not shown) [Compound 1-447] | 5 (Level 5: growth control rate is above 85%) | 5 (Level 5: growth control rate is above 85%) | 5 (Level 5: growth control rate is above 85%) | 5 (Level 5: growth control rate is above 85%) |  |  |  |  | Stellaria media (activity level) ([4]; Table 2, dose 500 g a.i./ha): 5 (Level 5: growth control rate is above 85%)
COCCC[S+]([O-])c1c(C(F)(F)F)ccc(C(=O)Nc2nnc(C)o2)c1F (stereo not shown) [Compound 1-448] | 5 (Level 5: growth control rate is above 85%) | 5 (Level 5: growth control rate is above 85%) | 5 (Level 5: growth control rate is above 85%) | 5 (Level 5: growth control rate is above 85%) |  |  |  |  | Stellaria media (activity level) ([4]; Table 2, dose 500 g a.i./ha): 5 (Level 5: growth control rate is above 85%)
Cc1nnc(NC(=O)c2ccc(C(F)(F)F)c(S(=O)(=O)C(C)C)c2F)o1 [Compound 1-12] |  |  |  |  | 5 (Level 5: growth control rate is above 85%) | 5 (Level 5: growth control rate is above 85%) | 5 (Level 5: growth control rate is above 85%) | 5 (Level 5: growth control rate is above 85%) | Stellaria media (activity level) ([4]; Table 2, dose 250 g a.i./ha): 5 (Level 5: growth control rate is above 85%)
Cc1nnc(NC(=O)c2ccc(C(F)(F)F)c([S+]([O-])CC(C)(C)C)c2F)o1 (stereo not shown) [Compound 1-392] | 5 (Level 5: growth control rate is above 85%) | 5 (Level 5: growth control rate is above 85%) | 5 (Level 5: growth control rate is above 85%) | 5 (Level 5: growth control rate is above 85%) |  |  |  |  | Stellaria media (activity level) ([4]; Table 2, dose 500 g a.i./ha): 5 (Level 5: growth control rate is above 85%)
Cc1nnc(NC(=O)c2ccc(C(F)(F)F)c(S(=O)(=O)CCC(F)(F)F)c2F)o1 [Compound 1-53] | 5 (Level 5: growth control rate is above 85%) | 5 (Level 5: growth control rate is above 85%) | 5 (Level 5: growth control rate is above 85%) | 5 (Level 5: growth control rate is above 85%) |  |  |  |  | Stellaria media (activity level) ([4]; Table 2, dose 500 g a.i./ha): 5 (Level 5: growth control rate is above 85%)
Cc1nnc(NC(=O)c2ccc(C(F)(F)F)c([S+]([O-])CCC#N)c2F)o1 (stereo not shown) [Compound 1-427] | 5 (Level 5: growth control rate is above 85%) | 5 (Level 5: growth control rate is above 85%) | 5 (Level 5: growth control rate is above 85%) | 5 (Level 5: growth control rate is above 85%) |  |  |  |  | 
Cc1nnc(NC(=O)c2ccc(C(F)(F)F)c([S+]([O-])CCCC(F)(F)F)c2F)o1 (stereo not shown) [Compound 1-411] |  |  |  |  | 5 (Level 5: growth control rate is above 85%) | 5 (Level 5: growth control rate is above 85%) | 5 (Level 5: growth control rate is above 85%) | 5 (Level 5: growth control rate is above 85%) | 
Cc1nnc(NC(=O)c2ccc(C(F)(F)F)c([S+]([O-])CCCC#N)c2F)o1 (stereo not shown) [Compound 1-428] | 5 (Level 5: growth control rate is above 85%) | 5 (Level 5: growth control rate is above 85%) | 5 (Level 5: growth control rate is above 85%) | 5 (Level 5: growth control rate is above 85%) |  |  |  |  | 
Cc1nnc(NC(=O)c2ccc(C(F)(F)F)c([S+]([O-])CCCCl)c2F)o1 (stereo not shown) [Compound 1-414] |  |  |  |  | 5 (Level 5: growth control rate is above 85%) | 5 (Level 5: growth control rate is above 85%) | 5 (Level 5: growth control rate is above 85%) | 5 (Level 5: growth control rate is above 85%) | 
CC#CC[S+]([O-])c1c(C(F)(F)F)ccc(C(=O)Nc2nnc(C)o2)c1F (stereo not shown) [Compound 1-402] |  |  |  |  | 5 (Level 5: growth control rate is above 85%) | 5 (Level 5: growth control rate is above 85%) | 5 (Level 5: growth control rate is above 85%) | 5 (Level 5: growth control rate is above 85%) | 
Cc1nnc(NC(=O)c2ccc(C(F)(F)F)c([S+]([O-])CCCF)c2F)o1 (stereo not shown) [Compound 1-403] |  |  |  |  |  |  |  |  | Digitaria sanguinalis (activity level) ([1]; Table 2, dose 125 g a.i./ha): 5 (Level 5: growth control rate is above 85%); Abutilion theophrasti (activity level) ([2]; Table 2, dose 125 g a.i./ha): 5 (Level 5: growth control rate is above 85%); Echinochloa crusgah (activity level) ([3]; Table 2, dose 125 g a.i./ha): 5 (Level 5: growth control rate is above 85%); Amaranthus retroflexus (activity level) ([5]; Table 2, dose 125 g a.i./ha): 5 (Level 5: growth control rate is above 85%)
CC(C)=NOCCSc1c(C(F)(F)F)ccc(C(=O)Nc2nnc(C)o2)c1F [Compound 1-144] |  | 5 (Level 5: growth control rate is above 85%) | 5 (Level 5: growth control rate is above 85%) | 5 (Level 5: growth control rate is above 85%) |  |  |  |  | Stellaria media (activity level) ([4]; Table 2, dose 500 g a.i./ha): 5 (Level 5: growth control rate is above 85%)
CCCCS(=O)(=O)c1c(C(F)(F)F)ccc(C(=O)Nc2nnc(C)o2)c1F [Compound 1-15] |  |  |  |  |  | 5 (Level 5: growth control rate is above 85%) |  | 5 (Level 5: growth control rate is above 85%) | Stellaria media (activity level) ([4]; Table 2, dose 250 g a.i./ha): 5 (Level 5: growth control rate is above 85%)
Cc1nnc(NC(=O)c2ccc(C(F)(F)F)c([S+]([O-])CC(C)F)c2F)o1 (stereo not shown) [Compound 1-404] |  |  |  |  |  |  |  |  | Digitaria sanguinalis (activity level) ([1]; Table 2, dose 125 g a.i./ha): 5 (Level 5: growth control rate is above 85%); Abutilion theophrasti (activity level) ([2]; Table 2, dose 125 g a.i./ha): 5 (Level 5: growth control rate is above 85%); Echinochloa crusgah (activity level) ([3]; Table 2, dose 125 g a.i./ha): 5 (Level 5: growth control rate is above 85%); Amaranthus retroflexus (activity level) ([5]; Table 2, dose 125 g a.i./ha): 5 (Level 5: growth control rate is above 85%)
C=CCSc1c(C(F)(F)F)ccc(C(=O)Nc2nnc(C)o2)c1F [Compound 1-40] | 5 (Level 5: growth control rate is above 85%) |  | 5 (Level 5: growth control rate is above 85%) | 5 (Level 5: growth control rate is above 85%) |  |  |  |  | 
Cc1nnc(NC(=O)c2ccc(C(F)(F)F)c([S+]([O-])CCC(F)(C(F)(F)F)C(F)(F)F)c2F)o1 (stereo not shown) [Compound 1-413] | 5 (Level 5: growth control rate is above 85%) |  | 5 (Level 5: growth control rate is above 85%) | 5 (Level 5: growth control rate is above 85%) |  |  |  |  | 
Cc1nnc(NC(=O)c2ccc(C(F)(F)F)c(SC(C)C)c2F)o1 [Compound 1-10] |  |  |  |  |  | 5 (Level 5: growth control rate is above 85%) | 5 (Level 5: growth control rate is above 85%) | 5 (Level 5: growth control rate is above 85%) | Stellaria media (activity level) ([4]; Table 2, dose 250 g a.i./ha): 5 (Level 5: growth control rate is above 85%)
Cc1nnc(NC(=O)c2ccc(C(F)(F)F)c([S+]([O-])CCC(F)(F)C(F)(F)F)c2F)o1 (stereo not shown) [Compound 1-412] |  |  |  |  | 5 (Level 5: growth control rate is above 85%) | 5 (Level 5: growth control rate is above 85%) | 5 (Level 5: growth control rate is above 85%) | 5 (Level 5: growth control rate is above 85%) | 
C#CCC[S+]([O-])c1c(C(F)(F)F)ccc(C(=O)Nc2nnc(C)o2)c1F (stereo not shown) [Compound 1-401] |  |  |  |  | 5 (Level 5: growth control rate is above 85%) | 5 (Level 5: growth control rate is above 85%) | 5 (Level 5: growth control rate is above 85%) | 5 (Level 5: growth control rate is above 85%) | 
Cc1nnc(NC(=O)c2ccc(C(F)(F)F)c([S+]([O-])CCC3CC3)c2F)o1 (stereo not shown) [Compound 1-395] | 5 (Level 5: growth control rate is above 85%) | 5 (Level 5: growth control rate is above 85%) | 5 (Level 5: growth control rate is above 85%) | 5 (Level 5: growth control rate is above 85%) |  |  |  |  | 
